Here are results for 5 compounds from US10800791B2, “Triazole ACC inhibitors and uses thereof” (Gilead Apollo, LLC, priority 2015, dated 2020).

pIC50: −log10 of the molar value. Converted amounts (≈) assume the structure as drawn.

One experiment has as its target human (hACC2) (Homo sapiens, UniProt O00763). As to the kind of experiment: In vitro ACC inhibition assay (ADP-Glo), hACC2. The format is biochemical. Conditions: Table 2b, additional results, 5 nM ACC2, 20 μM ATP, 20 μM acetyl-CoA. As to the method: The detailed procedure is as follows. […] 10 μL ADP glo reagent was added. […] 20 μL kinase detection reagent was added.
(In ADP-Glo the light output rises with the ADP produced.)

A further experiment concerns C. albicans. As to the kind of experiment: Antifungal Activity Assay (broth microtiter MIC), C. albicans. The format is cell-based, Candida albicans. Conditions: Candida albicans, ATCC90028, 48 h, Table 3b (additional results); ATCC 90028; 3 replicates; MIC recorded at 48 h; read-out: MIC, C. albicans ATCC 90028. In outline:
(§1)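 CLSI M27-A3 microdilution; RPMI 1640+MOPS; 2.5×10^3 CFU/mL final inoculum; cultures from Sabouraud dextrose agar, 35° C overnight; compound working solution 128 μg/mL from 1 mg/mL DMSO stock; visual MIC at 48 h vs growth control.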

Another experiment has as its system C. krusei. As to the kind of experiment: Antifungal Activity Assay (broth microtiter MIC), C. krusei. It counts as cell-based, Candida krusei. Conditions: Pichia kudriavzevii, ATCC6258, 48 h, Table 3b (additional results); ATCC 6258; 3 replicates; MIC recorded at 48 h; read-out: MIC, C. krusei ATCC 6258. The gist of the method: as §1
The test system of another experiment is C. parapsilosis. Put plainly: Antifungal Activity Assay (broth microtiter MIC), C. parapsilosis. The format is cell-based, Candida parapsilosis. Conditions: Lodderomyces parapsilosis, ATCC22019, 48 h, Table 3b (additional results); ATCC 22019; 3 replicates; MIC recorded at 48 h; read-out: MIC, C. parapsilosis ATCC 22019. The gist of the method: as §1
The next experiment deals with Botrtyis cinerea (Bc). Put plainly: Growth inhibition assay of fungal pathogens, Bc. Conditions: 48 h, Botrtyis cinerea; growth inhibition at 48 hours vs 2% DMSO control; read-out: Concentration at 90% Inhibition Bc. The format is cell-based. In outline:
(§2)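 Inhibition percentages reflect 48 h OD600 and visual scores relative to a 2% DMSO control. Test concentrations were 50, 10, 2 ppm or 2, 0.4, 0.08 ppm final, applied to spores in 17% V8 medium.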

The test system of experiment [1] is Collectotrichum graminicola (Cg). Put plainly: Growth inhibition assay of fungal pathogens, Cg. Conditions: 48 h, Collectotrichum graminicola; growth inhibition at 48 hours vs 2% DMSO control; read-out: Concentration at 90% Inhibition Cg. The format is cell-based. The gist of the method: as §2
The next experiment deals with Diplodia maydis (Dm). Put plainly: Growth inhibition assay of fungal pathogens, Dm. It counts as cell-based. Conditions: Stenocarpella maydis, 48 h, Diplodia maydis; growth inhibition at 48 hours vs 2% DMSO control; read-out: Concentration at 90% Inhibition Dm. The gist of the method: as §2
In experiment [2] the test system is Fusarium moniliforme (Fm). As to the kind of experiment: Growth inhibition assay of fungal pathogens, Fm. It counts as cell-based. Conditions: Fusarium verticillioides, 48 h, Fusarium moniliforme; growth inhibition at 48 hours vs 2% DMSO control; read-out: Concentration at 90% Inhibition Fm. In outline:
as §2

The subject of experiment [3] is Fusarium virguliforme (Fv). As to the kind of experiment: Growth inhibition assay of fungal pathogens, Fv. The format is cell-based. Conditions: 48 h, growth inhibition at 48 hours vs 2% DMSO control, read-out: Concentration at 90% Inhibition Fv. The gist of the method:
as §2

The test system of experiment [4] is Phytophthora capsici (Pc). Put plainly: Growth inhibition assay of fungal pathogens, Pc. The format is cell-based. Conditions: 48 h, growth inhibition at 48 hours vs 2% DMSO control, read-out: Concentration at 90% Inhibition Pc. In outline: as §2
A further experiment relates to Rhizoctonia solani (Rs). As to the kind of experiment: Growth inhibition assay of fungal pathogens, Rs. Conditions: 48 h, mycelial plugs, growth inhibition at 48 hours vs 2% DMSO control, read-out: Concentration at 90% Inhibition Rs. It counts as cell-based.
The next experiment deals with Septoria tritici (St). Put plainly: Growth inhibition assay of fungal pathogens, St. It counts as cell-based. Conditions: Zymoseptoria tritici, 48 h, Septoria tritici; growth inhibition at 48 hours vs 2% DMSO control; read-out: Concentration at 90% Inhibition St. In outline: as §2
The target of another experiment is fungal (fACC2) (UniProt Q00955). Conditions: read-out: fACC2 (in vitro ACC2 Inhibition Assay, IC50); Table 2b, additional results; ADP-Glo, 5 nM ACC2, 20 μM ATP, 20 μM acetyl-CoA.
Sequence of fungal (fACC2) (Q00955 whole entry): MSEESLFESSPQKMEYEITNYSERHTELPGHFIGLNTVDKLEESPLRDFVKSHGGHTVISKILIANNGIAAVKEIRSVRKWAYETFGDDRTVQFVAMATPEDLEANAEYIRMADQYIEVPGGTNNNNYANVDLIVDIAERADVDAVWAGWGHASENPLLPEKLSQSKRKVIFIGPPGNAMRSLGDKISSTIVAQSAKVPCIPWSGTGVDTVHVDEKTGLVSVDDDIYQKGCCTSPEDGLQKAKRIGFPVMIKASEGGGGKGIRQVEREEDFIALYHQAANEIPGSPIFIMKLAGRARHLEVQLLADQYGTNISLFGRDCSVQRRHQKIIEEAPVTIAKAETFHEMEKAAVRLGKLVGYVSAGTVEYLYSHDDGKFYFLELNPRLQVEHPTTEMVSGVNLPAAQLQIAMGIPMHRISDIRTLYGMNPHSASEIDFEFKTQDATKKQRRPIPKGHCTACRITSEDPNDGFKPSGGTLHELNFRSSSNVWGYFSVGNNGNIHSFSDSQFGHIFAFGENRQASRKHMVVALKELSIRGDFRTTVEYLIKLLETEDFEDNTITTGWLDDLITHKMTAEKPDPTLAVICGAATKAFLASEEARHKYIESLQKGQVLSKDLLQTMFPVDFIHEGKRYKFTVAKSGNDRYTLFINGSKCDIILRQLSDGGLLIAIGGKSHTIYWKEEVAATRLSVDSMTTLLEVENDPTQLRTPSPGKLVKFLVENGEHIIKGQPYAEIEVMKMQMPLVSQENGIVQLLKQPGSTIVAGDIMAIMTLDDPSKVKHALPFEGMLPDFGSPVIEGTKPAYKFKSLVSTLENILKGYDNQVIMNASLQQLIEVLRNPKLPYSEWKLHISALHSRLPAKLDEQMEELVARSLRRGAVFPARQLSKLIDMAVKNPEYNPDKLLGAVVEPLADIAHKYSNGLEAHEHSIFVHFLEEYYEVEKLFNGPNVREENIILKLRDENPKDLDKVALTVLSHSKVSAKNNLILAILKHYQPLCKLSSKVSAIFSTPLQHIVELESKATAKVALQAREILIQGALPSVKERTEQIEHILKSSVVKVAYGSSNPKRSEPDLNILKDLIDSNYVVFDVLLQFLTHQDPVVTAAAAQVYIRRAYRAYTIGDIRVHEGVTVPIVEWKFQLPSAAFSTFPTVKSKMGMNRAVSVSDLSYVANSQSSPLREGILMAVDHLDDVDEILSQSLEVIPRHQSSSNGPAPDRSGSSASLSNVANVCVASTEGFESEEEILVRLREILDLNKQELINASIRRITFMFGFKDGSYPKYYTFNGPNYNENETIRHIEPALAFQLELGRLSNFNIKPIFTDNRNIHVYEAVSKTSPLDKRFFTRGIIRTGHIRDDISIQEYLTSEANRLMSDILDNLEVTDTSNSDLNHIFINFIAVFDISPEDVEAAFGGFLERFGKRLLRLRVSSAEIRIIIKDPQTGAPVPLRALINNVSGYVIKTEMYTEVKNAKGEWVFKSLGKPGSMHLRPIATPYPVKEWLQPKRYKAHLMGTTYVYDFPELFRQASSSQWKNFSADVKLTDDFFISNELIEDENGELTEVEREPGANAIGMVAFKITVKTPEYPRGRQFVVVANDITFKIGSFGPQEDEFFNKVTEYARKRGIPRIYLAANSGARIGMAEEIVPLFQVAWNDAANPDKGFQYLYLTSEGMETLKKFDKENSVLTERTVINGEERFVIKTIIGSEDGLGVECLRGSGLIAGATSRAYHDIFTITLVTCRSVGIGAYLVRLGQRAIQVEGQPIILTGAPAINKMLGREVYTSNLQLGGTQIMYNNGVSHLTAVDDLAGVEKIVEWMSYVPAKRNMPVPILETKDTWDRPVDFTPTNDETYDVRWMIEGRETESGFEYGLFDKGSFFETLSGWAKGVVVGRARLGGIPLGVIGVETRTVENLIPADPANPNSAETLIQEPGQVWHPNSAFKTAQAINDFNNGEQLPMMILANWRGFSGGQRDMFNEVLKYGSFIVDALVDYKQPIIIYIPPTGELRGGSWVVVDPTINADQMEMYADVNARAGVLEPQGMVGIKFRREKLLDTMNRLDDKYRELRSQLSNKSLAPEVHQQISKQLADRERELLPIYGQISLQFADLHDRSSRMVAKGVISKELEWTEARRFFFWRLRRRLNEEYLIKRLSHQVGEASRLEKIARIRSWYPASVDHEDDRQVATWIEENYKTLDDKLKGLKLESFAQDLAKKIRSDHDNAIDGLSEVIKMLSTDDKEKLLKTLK

Sequence of human (hACC2) (O00763 whole entry): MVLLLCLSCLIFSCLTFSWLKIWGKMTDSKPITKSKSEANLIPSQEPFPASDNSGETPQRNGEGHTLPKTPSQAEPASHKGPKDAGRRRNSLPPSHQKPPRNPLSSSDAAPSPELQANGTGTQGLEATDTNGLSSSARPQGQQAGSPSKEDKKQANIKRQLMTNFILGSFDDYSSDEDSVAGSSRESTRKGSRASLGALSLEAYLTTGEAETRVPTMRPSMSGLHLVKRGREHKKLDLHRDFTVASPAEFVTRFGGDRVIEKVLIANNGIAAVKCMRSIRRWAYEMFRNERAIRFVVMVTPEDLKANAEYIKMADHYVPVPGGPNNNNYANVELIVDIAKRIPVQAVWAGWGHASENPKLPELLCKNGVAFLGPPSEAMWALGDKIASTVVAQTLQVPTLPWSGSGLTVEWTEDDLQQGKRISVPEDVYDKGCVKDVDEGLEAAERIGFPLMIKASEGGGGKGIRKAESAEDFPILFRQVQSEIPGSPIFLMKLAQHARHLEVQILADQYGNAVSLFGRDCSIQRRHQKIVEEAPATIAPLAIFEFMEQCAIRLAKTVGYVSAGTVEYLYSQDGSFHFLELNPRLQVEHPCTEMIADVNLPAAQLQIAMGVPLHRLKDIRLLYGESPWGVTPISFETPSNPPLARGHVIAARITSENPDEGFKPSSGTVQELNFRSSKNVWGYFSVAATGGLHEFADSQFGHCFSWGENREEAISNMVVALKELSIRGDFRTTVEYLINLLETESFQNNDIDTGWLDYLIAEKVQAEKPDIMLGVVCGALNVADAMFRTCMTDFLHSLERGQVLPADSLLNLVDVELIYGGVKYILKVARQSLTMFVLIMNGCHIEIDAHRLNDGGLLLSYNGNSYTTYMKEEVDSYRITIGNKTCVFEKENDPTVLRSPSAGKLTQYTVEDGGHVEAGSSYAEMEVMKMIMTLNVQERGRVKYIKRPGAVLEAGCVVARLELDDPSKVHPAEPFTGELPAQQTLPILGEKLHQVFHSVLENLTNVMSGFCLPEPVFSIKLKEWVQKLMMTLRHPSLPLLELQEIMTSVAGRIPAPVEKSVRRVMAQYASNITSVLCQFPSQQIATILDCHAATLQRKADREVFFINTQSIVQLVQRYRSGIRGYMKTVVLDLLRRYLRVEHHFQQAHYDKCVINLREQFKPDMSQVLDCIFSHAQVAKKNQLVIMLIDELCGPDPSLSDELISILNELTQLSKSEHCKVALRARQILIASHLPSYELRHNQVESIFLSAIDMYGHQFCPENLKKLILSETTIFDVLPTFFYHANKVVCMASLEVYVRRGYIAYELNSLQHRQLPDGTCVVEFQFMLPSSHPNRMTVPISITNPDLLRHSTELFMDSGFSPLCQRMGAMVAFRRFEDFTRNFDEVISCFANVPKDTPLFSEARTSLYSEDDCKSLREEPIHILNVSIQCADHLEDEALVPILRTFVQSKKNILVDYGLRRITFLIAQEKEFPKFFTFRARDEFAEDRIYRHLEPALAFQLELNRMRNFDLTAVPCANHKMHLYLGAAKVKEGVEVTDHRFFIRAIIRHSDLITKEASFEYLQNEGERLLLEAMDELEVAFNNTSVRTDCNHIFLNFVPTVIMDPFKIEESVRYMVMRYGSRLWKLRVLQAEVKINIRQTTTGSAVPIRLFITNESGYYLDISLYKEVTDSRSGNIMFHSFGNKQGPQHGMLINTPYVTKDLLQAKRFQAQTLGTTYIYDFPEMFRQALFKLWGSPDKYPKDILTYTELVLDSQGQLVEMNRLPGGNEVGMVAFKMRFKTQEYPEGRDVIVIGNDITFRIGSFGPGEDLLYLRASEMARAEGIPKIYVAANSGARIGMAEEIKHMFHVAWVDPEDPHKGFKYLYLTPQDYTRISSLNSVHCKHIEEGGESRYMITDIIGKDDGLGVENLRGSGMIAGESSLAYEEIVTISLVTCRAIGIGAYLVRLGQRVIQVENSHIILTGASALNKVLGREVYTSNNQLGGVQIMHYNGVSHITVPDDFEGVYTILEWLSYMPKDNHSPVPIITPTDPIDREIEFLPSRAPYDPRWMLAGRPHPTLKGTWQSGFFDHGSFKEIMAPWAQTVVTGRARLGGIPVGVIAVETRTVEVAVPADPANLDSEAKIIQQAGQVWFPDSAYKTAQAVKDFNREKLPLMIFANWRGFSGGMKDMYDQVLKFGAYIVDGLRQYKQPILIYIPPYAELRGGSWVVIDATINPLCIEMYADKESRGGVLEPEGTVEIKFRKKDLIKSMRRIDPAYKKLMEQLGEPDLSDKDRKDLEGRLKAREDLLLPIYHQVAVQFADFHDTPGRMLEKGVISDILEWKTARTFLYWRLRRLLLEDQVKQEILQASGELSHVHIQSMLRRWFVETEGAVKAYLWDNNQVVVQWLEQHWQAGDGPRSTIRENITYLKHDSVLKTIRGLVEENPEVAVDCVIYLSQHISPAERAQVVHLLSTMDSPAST

Broadly, the pIC50 is the negative decadic logarithm of the IC50, by convention in mol/L. The MIC is the smallest concentration in the dilution series that meets the test's criterion for growth inhibition. For the compound `CCc1ccc(F)cc1[C@H](Cn1c(=O)n(C(C)(C)C(=O)NC(C)C)c(=O)c2c(C)c(-n3nccn3)sc21)OCC(C)(C)C#N` [Compound I-238], the values for the pIC50 on human (hACC2) and on fungal (fACC2) were 8.00 to 8.30 and 8.30 to 9.00, respectively. The MIC in the experiment on C. albicans is 1.01 to 2 µg/mL (≈ 1.62 to 3.21 µM); with C. krusei, above 4.01 µg/mL; in the experiment with C. parapsilosis it was 2.01 to 4 µg/mL (≈ 3.22 to 6.41 µM). Besides, the IC90 is 0.08 µg/mL (≈ 0.128 µM) in the experiment with Botrtyis cinerea (Bc); 0.08 µg/mL (≈ 0.128 µM) in [1]; 2 µg/mL (≈ 3.21 µM) with Diplodia maydis (Dm); 0.08 µg/mL (≈ 0.128 µM) in [2]; 0.08 µg/mL (≈ 0.128 µM) in [3]; above 50 µg/mL in [4]. In addition, the results for the IC90 with Rhizoctonia solani (Rs) and in the experiment with Septoria tritici (St) were 0.08 µg/mL (≈ 0.128 µM) and above 50 µg/mL, respectively.

Take `COc1ccc(F)cc1[C@H](Cn1c(=O)n(C(C)(C)C(=O)NC(C)C)c(=O)c2c(C)c(-n3nccn3)sc21)O[C@H]1C[C@@H](O)C1` [Compound I-239]: the pIC50 was 7.40 to 8.00 at human (hACC2) and 8.30 to 9.00 at fungal (fACC2). Further, the MIC in the experiment with C. albicans, in the experiment on C. krusei and in the experiment on C. parapsilosis was 0.25 to 1 µg/mL (≈ 0.407 to 1.63 µM) throughout. The IC90 in the experiment with Botrtyis cinerea (Bc) is 2 µg/mL (≈ 3.25 µM); in experiment [1], 2 µg/mL (≈ 3.25 µM); in the experiment on Diplodia maydis (Dm), 2 µg/mL (≈ 3.25 µM); in experiment [2], 0.08 µg/mL (≈ 0.13 µM); in [3], 0.4 µg/mL (≈ 0.651 µM); in [4] it was above 50 µg/mL. For the same compound, the results for the IC90 in the experiment with Rhizoctonia solani (Rs) and in the experiment on Septoria tritici (St) were 0.08 µg/mL (≈ 0.13 µM) and above 50 µg/mL, respectively.

As to `CCc1ccc(F)cc1[C@@H](Cn1c(=O)n(C(C)(C)C(=O)NC(C)C)c(=O)c2c(C)c(-n3nccn3)sc21)OC[C@H](C)C#N` [Compound I-245], the pIC50 on human (hACC2) is 8.30 to 9.00; on fungal (fACC2), 9.00 to 9.52. The MIC with C. albicans was 2.01 to 4 µg/mL (≈ 3.3 to 6.56 µM); in the experiment with C. krusei, above 4.01 µg/mL; with C. parapsilosis, 2.01 to 4 µg/mL (≈ 3.3 to 6.56 µM). For the same compound, the IC90 is 0.08 µg/mL (≈ 0.131 µM) with Botrtyis cinerea (Bc); 0.08 µg/mL (≈ 0.131 µM) in experiment [1]; 2 µg/mL (≈ 3.28 µM) in the experiment with Diplodia maydis (Dm); 0.08 µg/mL (≈ 0.131 µM) in [2]; 0.08 µg/mL (≈ 0.131 µM) in experiment [3]; above 50 µg/mL in [4]. Further, the IC90 in the experiment on Rhizoctonia solani (Rs) is 0.08 µg/mL (≈ 0.131 µM); with Septoria tritici (St), above 50 µg/mL.

In the case of `Cc1c(-n2nccn2)sc2c1c(=O)n(C(C)(C)C(=O)NC(C)C)c(=O)n2C[C@H](OCCC#N)c1cc(F)ccc1O` [Compound I-246], the pIC50 was 8.30 to 9.00 at human (hACC2) and 9.00 to 9.52 at fungal (fACC2). The MIC with C. albicans was above 4.01 µg/mL; with C. krusei, 2.01 to 4 µg/mL (≈ 3.44 to 6.85 µM); in the experiment with C. parapsilosis, 2.01 to 4 µg/mL (≈ 3.44 to 6.85 µM). Besides, the IC90 with Botrtyis cinerea (Bc) worked out at 2 µg/mL (≈ 3.43 µM); in experiment [1], 2 µg/mL (≈ 3.43 µM); in the experiment with Diplodia maydis (Dm), 10 µg/mL (≈ 17.1 µM); in experiment [2] it was 0.4 µg/mL (≈ 0.685 µM); in [3], 2 µg/mL (≈ 3.43 µM); in experiment [4], 10 µg/mL (≈ 17.1 µM). The IC90 was 0.4 µg/mL (≈ 0.685 µM) with Rhizoctonia solani (Rs) and above 50 µg/mL with Septoria tritici (St).

`CCc1ccc(F)cc1[C@@H](Cn1c(=O)n(C(C)(C)C(=O)NC(C)C)c(=O)c2c(C)c(-n3nccn3)sc21)OC[C@@H](C)C#N` [Compound I-247]: the pIC50 at human (hACC2) and at fungal (fACC2) was 8.30 to 9.00 in each case. For the same compound, the MIC in the experiment on C. albicans was 2.01 to 4 µg/mL (≈ 3.3 to 6.56 µM); in the experiment on C. krusei, above 4.01 µg/mL; in the experiment on C. parapsilosis, 2.01 to 4 µg/mL (≈ 3.3 to 6.56 µM). For the same compound, the IC90 with Botrtyis cinerea (Bc) is 0.4 µg/mL (≈ 0.656 µM); in experiment [1], 0.08 µg/mL (≈ 0.131 µM); in the experiment with Diplodia maydis (Dm), 2 µg/mL (≈ 3.28 µM); in experiment [2] it was 0.08 µg/mL (≈ 0.131 µM); in experiment [3], 0.4 µg/mL (≈ 0.656 µM); in experiment [4], above 50 µg/mL. Besides, the IC90 with Rhizoctonia solani (Rs) is 0.08 µg/mL (≈ 0.131 µM); with Septoria tritici (St), above 50 µg/mL.
